# System: CD4+ T cell line JLat 10.6
# Experiment: Cellular cytotoxicity (LDH assay and CellTiter Glo assay)
# Type: cell-based, human
# Conditions: even at high concentration (20 μM), 72 h
# Procedure: This experiment examined the cellular cytotoxicity of DEB10-1143 alone and DEB10-1143+ART on the human CD4+ T cell line JLat 10.6. DEB10-1143 was tested as well on human primary CD4+ T lymphocytes. Drug titration and kinetic studies were conducted.
# Method: Cells (100,000 cells/100 μL) were treated in triplicate for 72 h with increasing concentrations of DEB10-1143 (0 to 20 μM) used alone or in combination with ART (20 μM TDF, 10 μM FTC and 1 μM Raltegravir). ART and DEB10-1143 were added simultaneously to cells. Saponin (0.5%) was used as positive control due to its ability to induce cell death.
# Cellular cytotoxicity was analyzed by Lactate dehydrogenase (LDH) assay and CellTiter Glo assay.
# LDH assay: LDH is an oxidoreductase enzyme that catalyses the interconversion of pyruvate and lactate. Cells release LDH into the bloodstream after tissue damage or red blood cell hemolysis. […] In this particular assay, LDH reduces NAD to NADH, which is specifically detected by colorimetric (490 nm) assay.
# CellTiter Glo assay: The CellTiter-Glo® 2.0 Assay determines the number of viable cells in culture by quantifying ATP, which indicates the presence of metabolically active cells. Luminescence readout is directly proportional to the number of viable cells in culture. Data are expressed in luminescence (RLU) in triplicate
structure (smiles),measurement,value
"CN[C@@H](C)C(=O)N[C@H]1CN(C(=O)CC(C)C)CC[C@H]2CC[C@@H](C(=O)NC(c3ccccc3)c3ccccc3)N2C1=O [Debio 1143, (5S,8S,10aR)-N-benzhydryl-5-((S)-2-(methylamino)propanamido)-3-(3-methylbutanoyl)-6-oxodecahydropyrrolo[1,2-a][1,5]diazocine-8-carboxamide]",cytotoxicity,no significant cytotoxicity
